From patent publication US20180003613A1, “Phenotypic High-Content Assay to Evaluate Drugs” (Texas Tech University System, priority 2015, published 2018)
“Also recorded” adds a separate entry of the source.

How the values were obtained:
AGT-170 cells = experiment: Phenotypic cell based AGT/peroxisome co-localization high content assay (Pearson's colocalization coefficient), AGT-170 cells; parameters: species or system Chinese hamster; conditions: for % rescue (normalized AGT co-localization): pilot screen, 1536 well, FIG. 3, normalized to AGT-mi (high) and AGT-170 (low) DMSO controls, 4 μM final stated for pilot screen
Method: After an overnight incubation time at 37 C, 95% relative humidity and 5% CO2, cells were treated with DMSO or glycerol at different concentrations. After 2 days, cells were fixed with 4% paraformaldehyde, washed 3 times with PBS and permeabilized for 10-30 min with 0.1% Triton X-100 in PBS (PBS-TX). Cells were then stained with a guinea pig anti-AGT “A1” antibody (1:10,000) and a rabbit anti-PMP70 antibody (Ab3421, 1:500) in PBS-TX containing 0.5% goat serum. After 3 PBS washes, anti-rabbit AF488 and anti-guinea pig AF546 secondary antibodies (both at 1:10,000), as well as Hoeschst at 10 ug/mL were added to each well. Images were acquired with a 20× objective on the CellInsight (Cellomics). Puncta labeled with the anti-PMP70 antibody (labeling peroxisomes) and the anti-AGT antibody are detected in the green and red channels, respectively. Colocalization of the two populations of puncta was determined via calculation of the Pearson Colocalization Coefficient using Cellomics' “Colocalization” BioApplication. Here, miAGT cells are non-mutant AGT expressing CHO cells while the mutant AGT cells are references as 170s. The concentration of glycerol used in […] is listed in both the bar graph and the scatterplot. 4 replicates per condition were done and Z′ and S:B are calculated from the untreated AGT 170 cells versus the miAGT cells.
384-well plate assay protocol. Briefly, AGT-170 cells (and AGTmi cells that serve as a positive control) were seeded in black, square, IQ™ 100 μ384-well plates (Aurora, Brooks, Chelmsford, Mass.) at 500 cells/wells using a Flying Reagent Dispenser (FRD, Beckman Coulter, Brea, Calif.). After an overnight incubation at 37° C., 95% relative humidity (RH) and 5% CO2, cells were treated with 100 nL test compounds or DMSO for the positive and negative wells with a pintool transfer unit (GNF). Plates were then placed in an incubator for three days at 37° C., 95% RH and 5% CO2, immunostained and acquired on a high content imager as described below.
Immunostaining. Following treatment and incubation as described above, cells were fixed by the addition of 2× fixation solution (8% paraformaldehyde-PFA) using a FRD. Plates were then washed 3 times with PBS on the Squirt microplate washer using a 12° nozzle tilt and 15 PSI pressure according to the user's manual for washing normal binding cells in 384-well plate format (Brook, Chelmsford, Mass.). Cells were then permeabilized by dispensing a solution of 0.1% Triton X-100 in PBS (PBS-TX) and incubated for 10-30 minutes. Next, cells were stained with a guinea pig anti-AGT “A1” antibody (Danpure's Lab, London, UK; 1:10,000) and a rabbit anti-PMP70 antibody (Abcam, Cambridge, Mass.; 1:500) in PBS-TX containing 0.5% goat serum. After 3 PBS washes, anti-rabbit AF488 and anti-guinea pig AF546 secondary antibodies (Molecular Probes, Eugene, Oreg.; both at 1:10,000), as well as Hoechst at 10 μg/mL were added to each well. Thirty minutes later, plates were washed 3 times, filled with 50 μL/well of PBS and sealed with black tape.
Image acquisition and analysis. Plates were read and images acquired with the CellInsight high content reader (Thermo Fisher Scientific, Pittsburgh, Pa.) using a 20× objective. A detailed and illustrated description of the image acquisition and analysis is presented FIGS. 1A to 1H. A maximum of 9 fields of view per well were acquired, yielding an average of ≈700 cells detected. The nuclear stain channel (Hoechst, 386 nm, 9.8 milliseconds exposure time) was used to focus on the cell layer. Puncta labeled with the anti-PMP70 antibody (labeling peroxisomes) and the anti-AGT antibody were acquired in the green (485 nm, 40 milliseconds exposure) and red (549 nm, 15 milliseconds exposure) channels, respectively. Nuclei were detected using the fixed threshold method with an intensity threshold of 300. Next, a cytoplasmic region of interest was created around each nucleus by creating a ring with a distance of 1 pixel from the nucleus and a width of 8 pixels. […]

CHO cells = experiment: Cytotoxicity / cell viability seen in the high content assay (HCS images); assay type: cell-based, Chinese hamster
Method: In order to assess the ability to induce and detect an increase in the Pearson's colocalization coefficient, both AGTmi and AGT-170 cells were treated with glycerol, which is a viscous polyol compound known to enhance the stability of proteins in solution. This co-solvent shifts the native protein to more compact states and inhibits protein-protein aggregation while proteins are being refolded during biological synthesis. […] Concentrations of glycerol higher than 5% affected cell viability and prevented accurate determination of the Pearson's colocalization coefficient; for these reasons, they were avoided. To probe the robustness of the assay, the glycerol titration assay was repeated on two separate plates. […] The Z′-factor, a statistical measurement indicative of HTS-readiness, was calculated between the AGT-170 cells in absence and presence of 5% glycerol and found to be 0.58, and at 0.81 between untreated AGT-170 and AGTmi cells.
Fresh powders, solvated in DMSO, were obtained and reformatted as ten point three fold serial dilutions and proceeded to test them in the same assay as described above. […] All data was imported into the Scripps database, assessed for quality control in terms of Z′, S:B and CV (i.e., quality controlled), and curves were fitted using a 4-parameter algorithm without constraining the top or bottom asymptote. […]

AGTmi cells = experiment: AGT/peroxisome co-localization high content assay, AGTmi cells, glycerol treatment; assay type: cell-based, Chinese hamster
Method: After an overnight incubation time at 37 C, 95% relative humidity and 5% CO2, cells were treated with DMSO or glycerol at different concentrations. After 2 days, cells were fixed with 4% paraformaldehyde, washed 3 times with PBS and permeabilized for 10-30 min with 0.1% Triton X-100 in PBS (PBS-TX). Cells were then stained with a guinea pig anti-AGT “A1” antibody (1:10,000) and a rabbit anti-PMP70 antibody (Ab3421, 1:500) in PBS-TX containing 0.5% goat serum. After 3 PBS washes, anti-rabbit AF488 and anti-guinea pig AF546 secondary antibodies (both at 1:10,000), as well as Hoeschst at 10 ug/mL were added to each well. Images were acquired with a 20× objective on the CellInsight (Cellomics). Puncta labeled with the anti-PMP70 antibody (labeling peroxisomes) and the anti-AGT antibody are detected in the green and red channels, respectively. Colocalization of the two populations of puncta was determined via calculation of the Pearson Colocalization Coefficient using Cellomics' “Colocalization” BioApplication. […] 4 replicates per condition were done and Z′ and S:B are calculated from the untreated AGT 170 cells versus the miAGT cells.
Image acquisition and analysis. Plates were read and images acquired with the CellInsight high content reader (Thermo Fisher Scientific, Pittsburgh, Pa.) using a 20× objective. […]

[1] = fresh powders, ten point three fold serial dilutions, 25 uM highest concentration, FIG. 5

26-Deoxymonensin B
% rescue (normalized AGT co-localization) (AGT-170 cells): 73%

CC(NCCC(c1ccccc1)c1ccccc1)c1ccccc1 (stereo not shown) [Fendiline]
Activity in concentration response curves (AGT-170 cells; [1]): inactive; also recorded: did not show significant activity | Toxicity by eye when observing HCS images (CHO cells; concentration response test, FIG. 5 and FIG. 6): appears toxic at higher concentrations; also recorded: appeared toxic at 10 uM

CC[C@@]1([C@@H]2O[C@@H]([C@H]3O[C@@](O)(CO)[C@H](C)C[C@@H]3C)C[C@@H]2C)CC[C@H]([C@]2(C)CC[C@]3(C[C@H](O)[C@@H](C)[C@@H]([C@@H](C)[C@@H](OC)[C@H](C)C(=O)O)O3)O2)O1 [Monensin]
EC50 potency from concentration response curves (AGT-170 cells; [1]): low micromolar potency | % rescue (normalized AGT co-localization) (AGT-170 cells): 84%

OCC(O)CO [glycerol]
Effect on AGT mutant (colocalization with peroxisomes) (AGT-170 cells; 1536-well plates, 2 days treatment, FIG. 1): stabilizing the AGT mutant | fold increase of Pearson's colocalization coefficient (AGT-170 cells; AGT-170 cells, glycerol treatment): 1.91 fold | Pearson's colocalization coefficient after glycerol treatment (AGT-170 cells; AGT-170 cells, increasing concentrations of glycerol, n=4, untreated 0.41±0.01): 0.80±0.04 | fold increase of Pearson's values (AGTmi cells): ~1.10 fold | Concentration that affected cell viability (CHO cells; glycerol titration, prevented accurate determination of the Pearson's coefficient): higher than 5%
